The values that follow come from patent US20230150986A1, “ANTAGONISTS OF THE MUSCARINIC ACETYLCHOLINE RECEPTOR M4” (Vanderbilt University, priority 2019, published 2023).

The IC50 is the concentration that gives 50% inhibition.

This assay has as its target T1, Human M4 (Homo sapiens, UniProt P08173).
T1 construct: Human or rat M4 cDNA, along with the chimeric G protein Gq,5, were transfected into Chinese hamster ovary (CHO-K1) cells; expressed in transfected cells; host or cells: CHO-K1 (M4/Gqi5/CHO)
T1 sequence (P08173 1-479): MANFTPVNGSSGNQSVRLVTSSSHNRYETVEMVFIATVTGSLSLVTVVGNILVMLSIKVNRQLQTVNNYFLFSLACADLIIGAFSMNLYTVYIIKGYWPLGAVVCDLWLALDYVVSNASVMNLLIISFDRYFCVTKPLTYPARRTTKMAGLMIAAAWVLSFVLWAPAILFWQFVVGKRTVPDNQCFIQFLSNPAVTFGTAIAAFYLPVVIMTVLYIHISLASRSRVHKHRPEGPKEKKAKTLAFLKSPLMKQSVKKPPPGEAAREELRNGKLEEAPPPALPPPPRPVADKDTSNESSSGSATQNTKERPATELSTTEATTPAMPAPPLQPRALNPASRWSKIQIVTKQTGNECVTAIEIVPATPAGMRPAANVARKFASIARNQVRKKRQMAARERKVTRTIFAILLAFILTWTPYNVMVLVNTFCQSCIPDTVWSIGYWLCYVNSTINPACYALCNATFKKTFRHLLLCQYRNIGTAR
Description: mAChR M4 cell-based functional assay (calcium flux, decrease of EC80 acetylcholine response). Conditions: for Human M4 Emin: % ACh maximum at 30 μM; for IC50: CHO-K1 cells with human M4 and Gqi5, EC80 acetylcholine. A digest of the protocol: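 CHO-K1 cells stably co-expressing M4 with chimeric Gqi5, loaded with Fluo-4 AM for 50 min at 37 °C; compounds added as 10-point 1:3 curves, then acetylcholine at EC20 (143 s) and EC80 (268 s). Calcium read by FDSS fluorescence ratio; IC50 from four-parameter fit of decrease in EC80 acetylcholine response.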
On the technique in general: Calcium flux is commonly read through the fluorescence of an indicator in the cells.

The structures appear in SMILES notation.

For `CC(C)C(O)CN1C[C@H]2C[C@H](Nc3ccc(-c4cc(F)cc(F)c4F)nn3)C[C@H]2C1` (stereo partly drawn) [Compound 64, 3-methyl-1-((3aR,5s,6aS)-5-((6-(2,3,5-trifluorophenyl)pyridazin-3-yl)amino)hexahydrocyclopenta[c]pyrrol-2(1H)-yl)butan-2-ol], the “Human M4 Emin” value came out at 5% and the IC50 worked out at 7.3 nM.
`OC1CCCCC1N1C[C@H]2C[C@H](Nc3ccc(-c4cc(F)cc(F)c4F)nn3)C[C@H]2C1` (stereo partly drawn) [Compound 65, 2-((3aR,5s,6aS)-5-((6-(2,3,5-trifluorophenyl)pyridazin-3-yl)amino)hexahydrocyclopenta[c]pyrrol-2(1H)-yl)cyclohexan-1-ol]: the “Human M4 Emin” value stood at 6% and the IC50 is 350 nM.
For `[2H]C([2H])([C@@H]1CCCOC1)N1C[C@H]2C[C@H](Nc3ccc(-c4cc(F)cc(F)c4F)nn3)C[C@H]2C1` [Compound 66, (3aR,5s,6aS)-2-(((S)-tetrahydro-2H-pyran-3-yl)methyl-d2)-N-(6-(2,3,5-trifluorophenyl)pyridazin-3-yl)octahydrocyclopenta[c]pyrrol-5-amine], in that order: 3% and 12 nM.
Take `Fc1cc(F)c(F)c(-c2ccc(N[C@H]3C[C@@H]4CN(CC5CCSCC5)C[C@@H]4C3)nn2)c1` [Compound 67, (3aR,5s,6aS)-2-((tetrahydro-2H-thiopyran-4-yl)methyl)-N-(6-(2,3,5-trifluorophenyl)pyridazin-3-yl)octahydrocyclopenta[c]pyrrol-5-amine]: the “Human M4 Emin” value was 3% and the IC50 is 4 nM.
For the compound `Fc1cc(F)c(F)c(-c2ccc(N[C@H]3C[C@@H]4CN(CC5CC6(COC6)C5)C[C@@H]4C3)nn2)c1` [Compound 68, (3aR,5s,6aS)-2-((2-oxaspiro[3.3]heptan-6-yl)methyl)-N-(6-(2,3,5-trifluorophenyl)pyridazin-3-yl)octahydrocyclopenta[c]pyrrol-5-amine], the “Human M4 Emin” value is reported as 3% and the IC50 was found to be 0.36 nM.
`O=S1(=O)CCC(CN2C[C@H]3C[C@H](Nc4ccc(-c5cc(F)cc(F)c5F)nn4)C[C@H]3C2)CC1` [Compound 69, 4-(((3aR,5s,6aS)-5-((6-(2,3,5-trifluorophenyl)pyridazin-3-yl)amino)hexahydrocyclopenta[c]pyrrol-2(1H)-yl)methyl)tetrahydro-2H-thiopyran 1,1-dioxide]: the “Human M4 Emin” value worked out at 3% and the concentration for half-maximal inhibition (IC50) came out at 0.9 nM.
For `[2H]C1([2H])[C@H](Nc2ccc(-c3cc(F)cc(F)c3F)nn2)C([2H])([2H])[C@H]2CN(CC3CCOCC3)C[C@H]21` [Compound 70], in that order: 3% and 4.4 nM.
Regarding `Fc1cc(F)c(F)c(-c2ccc(N[C@H]3C[C@@H]4CN(C[C@H]5[C@@H]6COC[C@@H]65)C[C@@H]4C3)nn2)c1` [Compound 71, (3aR,5s,6aS)-2-(((1R,58,6s)-3-oxabicyclo[3.1.0]hexan-6-yl)methyl)-N-(6-(2,3,5-trifluorophenyl)pyridazin-3-yl)octahydrocyclopenta[c]pyrrol-5-amine], the “Human M4 Emin” value was 3% and the IC50 came out at 0.47 nM.
For `Fc1cc(F)c(F)c(-c2ccc(N[C@H]3C[C@@H]4CN(CC5CC56CCOCC6)C[C@@H]4C3)nn2)c1` (stereo partly drawn) [Compound 72, (3aR,5s,6aS)-2-((6-oxaspiro[2.5]octan-1-yl)methyl)-N-(6-(2,3,5-trifluorophenyl)pyridazin-3-yl)octahydrocyclopenta[c]pyrrol-5-amine] the same measures were 3% and 2.1 nM.
For `Fc1cc(F)c(F)c(-c2ccc(N[C@H]3C[C@@H]4CN(CC5CCCOCC5)C[C@@H]4C3)nn2)c1` (stereo partly drawn) [Compound 73, (3aR,5s,6aS)-2-(oxepan-4-ylmethyl)-N-(6-(2,3,5-trifluorophenyl)pyridazin-3-yl)octahydrocyclopenta[c]pyrrol-5-amine], in that order: 3% and 0.82 nM.
For `CCOCCN1C[C@H]2C[C@H](Nc3ccc(-c4cc(F)cc(F)c4F)nn3)C[C@H]2C1` [Compound 74, (3aR,5s,6aS)-2-(2-ethoxyethyl)-N-(6-(2,3,5-trifluorophenyl)pyridazin-3-yl)octahydrocyclopenta[c]pyrrol-5-amine], in that order: 4% and 210 nM.
With `COCCCN1C[C@H]2C[C@H](Nc3ccc(-c4cc(F)cc(F)c4F)nn3)C[C@H]2C1` [Compound 75, (3aR,5s,6aS)-2-(3-methoxypropyl)-N-(6-(2,3,5-trifluorophenyl)pyridazin-3-yl)octahydrocyclopenta[c]pyrrol-5-amine], the “Human M4 Emin” value amounted to 4% and the IC50 was determined as 79 nM.
On to `[2H]C([2H])([C@H]1[C@@H]2COC[C@@H]21)N1C[C@H]2C[C@H](Nc3ccc(-c4cc(F)cc(F)c4F)nn3)C[C@H]2C1` [Compound 76, (3aR,5s,6aS)-2-(((1R,58,6s)-3-oxabicyclo[3.1.0]hexan-6-yl)methyl-d2)-N-(6-(2,3,5-trifluorophenyl)pyridazin-3-yl)octahydrocyclopenta[c]pyrrol-5-amine], for which the “Human M4 Emin” value came to 3% and the IC50 was 0.59 nM.
Turning to `[2H]C([2H])([C@@H]1CC12CCOCC2)N1C[C@H]2C[C@H](Nc3ccc(-c4cc(F)cc(F)c4F)nn3)C[C@H]2C1` [Compound 77, (3aR,5s,6aS)-2-((6-oxaspiro[2.5]octan-1-yl)methyl-d2)-N-(6-(2,3,5-trifluorophenyl)pyridazin-3-yl)octahydrocyclopenta[c]pyrrol-5-amine], the “Human M4 Emin” value came to 3% and the IC50 was found to be 2.1 nM.
For `[2H]C([2H])(C1CCCOCC1)N1C[C@H]2C[C@H](Nc3ccc(-c4cc(F)cc(F)c4F)nn3)C[C@H]2C1` (stereo partly drawn) [Compound 78, (3aR,5s,6aS)-2-(oxepan-4-ylmethyl-d2)-N-(6-(2,3,5-trifluorophenyl)pyridazin-3-yl)octahydrocyclopenta[c]pyrrol-5-amine] the same measures were 2% and 1.2 nM.
`[2H]C([2H])(COCC)N1C[C@H]2C[C@H](Nc3ccc(-c4cc(F)cc(F)c4F)nn3)C[C@H]2C1` [Compound 79, (3aR,5s,6aS)-2-(2-ethoxyethyl-1,1-d2)-N-(6-(2,3,5-trifluorophenyl)pyridazin-3-yl)octahydrocyclopenta[c]pyrrol-5-amine]: the “Human M4 Emin” value is on record as 5% and the IC50 worked out at 120 nM.
For `[2H]C([2H])(CCOC)N1C[C@H]2C[C@H](Nc3ccc(-c4cc(F)cc(F)c4F)nn3)C[C@H]2C1` [Compound 80, (3aR,5s,6aS)-2-(3-methoxypropyl-1,1-d2)-N-(6-(2,3,5-trifluorophenyl)pyridazin-3-yl)octahydrocyclopenta[c]pyrrol-5-amine] the same measures were 8% and 4500 nM.
In the case of `[2H]C([2H])(C1CCOCC1)N1C[C@H]2C[C@H](Nc3ccc(-c4cc(F)cc(F)c4F)nn3)C[C@H]2C1` [Compound 81, (3aR,5s,6aS)-2-((tetrahydro-2H-pyran-4-yl)methyl-d2)-N-(6-(2,3,5-trifluorophenyl)pyridazin-3-yl)octahydrocyclopenta[c]pyrrol-5-amine], the “Human M4 Emin” value turned out to be 3% and the IC50 turned out to be 6.7 nM.
Take `CC1(C)CC(CN2C[C@H]3C[C@H](Nc4ccc(-c5cc(F)cc(F)c5F)nn4)C[C@H]3C2)CC(C)(C)O1` [Compound 82, (3aR,5s,6aS)-2-((2,2,6,6-tetramethyltetrahydro-2H-pyran-4-yl)methyl)-N-(6-(2,3,5-trifluorophenyl)pyridazin-3-yl)octahydrocyclopenta[c]pyrrol-5-amine]: the “Human M4 Emin” value was determined as 2% and the IC50 was 62 nM.
For `[2H]C([2H])(C1CC(C)(C)OC(C)(C)C1)N1C[C@H]2C[C@H](Nc3ccc(-c4cc(F)cc(F)c4F)nn3)C[C@H]2C1` [Compound 83, (3aR,5s,6aS)-2-((2,2,6,6-tetramethyltetrahydro-2H-pyran-4-yl)methyl-d2)-N-(6-(2,3,5-trifluorophenyl)pyridazin-3-yl)octahydrocyclopenta[c]pyrrol-5-amine] the same measures were 3% and 56 nM.
For `Fc1cc(F)c(F)c(-c2ccc(N[C@H]3C[C@@H]4CN(CCC5COC5)C[C@@H]4C3)nn2)c1` [Compound 84, (3aR,5s,6aS)-2-(2-(oxetan-3-yl)ethyl)-N-(6-(2,3,5-trifluorophenyl)pyridazin-3-yl)octahydrocyclopenta[c]pyrrol-5-amine] the same measures were 4% and 72 nM.
For `[2H]C([2H])(CC1COC1)N1C[C@H]2C[C@H](Nc3ccc(-c4cc(F)cc(F)c4F)nn3)C[C@H]2C1` [Compound 85, (3aR,5s,6aS)-2-(2-(oxetan-3-yl)ethyl-1,1-d2)-N-(6-(2,3,5-trifluorophenyl)pyridazin-3-yl)octahydrocyclopenta[c]pyrrol-5-amine], in that order: 4% and 66 nM.
